How the values were obtained:
mature field weeds = experiment: Trial 50: field test, visual toxicity scoring; type: in vivo
Excerpt: (§1) The majority of greenhouse trials conducted to date have been of one basic design: • 1. Samples of different species of flowering plant and grass are exposed to different formulations of the herbicide in accordance with some embodiments, prepared in a range of concentrations, in combination with potentially suitable adjuvants, and applied as an aquatic spray. Experimental plants are purchased either from a local nursery, grown from ornamental and weed seed packs, or grown from seeds of a custom blend prepared specifically for this project and listed in Table 4B. The experimental variable in a typical test is the molar mass concentration of the nutrient salt being examined. Other factors including pH, nitrogen source, and the amount and composition of surfactant or penetrant are constants within a trial except when one of these factors is itself the variable of interest in the experiment. Experiments are controlled unless irrelevant for a particular test. • 2. Standard techniques to reduce experimental error are employed including use of controls; standard spray application pressures; standardized growing conditions, growing medium, containers, and source irrigation water; and preparation and shipping of samples for laboratory analysis according to required standard laboratory protocols. • 3. Plants are sprayed with the experimental formulation, always in late afternoon (greenhouse tests), or in early morning (field tests), are observed over as many as several weeks, and their visible state of decline scored by the same examiner on a 9 points system relying on visual effects of toxicity. (Table 5.)
(§2) Scores of half-value are also used: 0, 0.5, 1.0, 1.5, 2.0, 2.5, etc. • 4. The estimated successful herbicidal effectiveness of a formulation was determined from a combination of averaged and cumulative scores of 4.0 to 5.0 observed approximately 14 days or longer after application: “All leaves and flowers if present desiccated, browned, wilted, and stems or blades lodged; no green tissue visible; no regrowth from roots visible.”
In Trial 50, the herbicides comprised K-acetate; molarity range from 1.5, 2.0 and 2.5; pH 5.0 with citric acid; proprietary adjuvant mix. Ref. Lab-2, p. […] Test plants were mature field weeds.
S-1 corresponds to the highest concentration of active nutrient tested, S-3 corresponds to the lowest concentration of nutrient tested, and S-2 represent an intermediate level. The data are graphically presented below in FIG. 11.

[1] = tested on: Pasture Blend 2, Allium ampeloprasum (Leek), Brassica oleracea (Kale), Lantana camara, Pisum sativum var. saccharatum (Snow pea) (P2, 1, 5, 16, 23); experiment: Trial 31B: greenhouse foliar spray trial, adjuvant mix B, visual toxicity scoring; type: in vivo; conditions: 2.0 M; day 4
Excerpt: (§3) The plants were numbered 22, 1, 5, 16, and 23, corresponding to Pasture blend 2, Brassica oleracea (var. Kale “Dinosaur”), Lantana camara (White Lantana), and Pisum sativum var. saccharatum (Snow pea) (Refer to Tables 4A and 4B for plant species identification). The only difference between Trials 31A and 31B was the composition of the proprietary adjuvant mix employed for each trial. The adjuvants for the “A” series were urea and […] silicone surfactant (Loveland Products). The adjuvants for the “B” series were urea and LI700 penetrant (Loveland Products). Solutions 1 A & B (S-1A, S-1B) correspond to a 2.0 molar solution of potassium acetate, pH 5.01 achieved with citric acid. S-2 is a similar solution of 1.5 molarity, pH 5.00. S-3 is a similar solution of 1.0 molarity, pH 4.97. (Refer to Tables 6A and 6B for trial solutions, details and results).
(§4) The majority of greenhouse trials conducted to date have been of one basic design: • 1. […] Plants are sprayed with the experimental formulation, always in late afternoon (greenhouse tests), or in early morning (field tests), are observed over as many as several weeks, and their visible state of decline scored by the same examiner on a 9 points system relying on visual effects of toxicity. […]

[2] = tested on: Viola x wittockiana (Viola), Antirrhinum majus (Snapdragon), Cineraria meritima (Dusty miller), Cymbalaria aequitriloba (Cymbalaria); experiment: Trial 56: greenhouse foliar spray trial, visual toxicity scoring; type: in vivo; conditions: for phytotoxic control (in words): 1.5 molarity
Excerpt: as §1, §2

[3] = tested on: Pasture Blend 2, Allium ampeloprasum (Leek), Brassica oleracea (Kale), Lantana camara, Pisum sativum var. saccharatum (Snow pea) (P2, 1, 5, 16, 23); experiment: Trial 31A: greenhouse foliar spray trial, adjuvant mix A, visual toxicity scoring; type: in vivo; conditions: 1.0M; by Day 20
Excerpt: as §3, §4

[4] = tested on: Pasture Blend 2, Gazania rigens, Fragaria x ananassa (Strawberry), Nemophila menziesii discoidalis (plants 22, 15, 13, 19); experiment: Trial 22: greenhouse foliar spray trial, visual toxicity scoring; type: in vivo
Excerpt: as §1, §2
In Trial 22, the herbicides comprised K-acetate; molarity range 1.0-2.0; pH approx. 5.0 with succinic acid; proprietary adjuvant mix.

[5] = tested on: Brassica oleracea (Kale), Dichondra repens, Fragaria x ananassa (Strawberry), Pasture Blend 2, Rosemarina officinalis (Rosemary) (5, 11b, 13, 22, 23b); experiment: Trial 47: greenhouse foliar spray trial, visual toxicity scoring; type: in vivo
Excerpt: as §1, §2
In Trial 47, the herbicides comprised K-acetate; molarity range from 1.0-2.5; pH 5.03-5.05 with glacial acetic acid; proprietary adjuvant mix. Ref. Lab-2, p. 42. Test plants (ref Tables 4A and 4B):5, 11b, 13, 22, 23b
S-1 corresponds to the highest concentration of active nutrient tested, S-4 corresponds to the lowest concentration of nutrient tested, and […] represent intermediate levels. The data are graphically presented below in FIG. 8.

[6] = tested on: all weeds: Common purslane, Barnyard grass, Feather fingergrass; conditions: Day 4
Excerpt: as §1, with “Standard techniques to reduce experimental error are employed including use of controls; standard spray application pressures; standardized growing conditions, growing medium, containers, and source irrigation water; and preparation and shipping of samples for laboratory analysis according to required standard laboratory protocols. • 3.” left out, “(Table 5.)” left out

[7] = tested on: Pasture Blend 1, Pasture blend 2, Cineraria meritima (Dusty miller) (plants 21, 22, 10); experiment: Trial 14: greenhouse foliar spray trial, visual toxicity scoring; type: in vivo, pasture seed blend
Excerpt: as §1, §2
In Trial 14, the herbicides comprised K-acetate; molarity 2.0, 1.5, 1.0; pH approx. 5.3 by glacial acetic acid, and a proprietary adjuvant mix. Ref. Lab-1, p. 113. Test plants (ref. Tables 4A and 4B): P1, P2, P10.

[8] = tested on: Pasture Blend 2, Gazania rigens, Fragraria x ananassa (Strawberry), Nemophila menziesii discoidalis (plants 22, 15, 13, 19); experiment: Trial 25: greenhouse foliar spray trial at four acidities, visual toxicity scoring; type: in vivo; conditions: molarity 1.5, test conclusion on Day 5
Excerpt: as §1, with “Standard techniques to reduce experimental error are employed including use of controls; standard spray application pressures; standardized growing conditions, growing medium, containers, and source irrigation water; and preparation and shipping of samples for laboratory analysis according to required standard laboratory protocols. • 3.” left out, “(Table 5.)” left out

## CC(=O)[O-].[K+] [K-acetate, Potassium acetate]
Mature field weeds; 2.0M, Day 3
  average toxicity score: 3.6
Mature field weeds; 2.0M, Day 10
  average toxicity score: 3.6
Mature field weeds; 2.5M, Day 3
  average toxicity score: 2.8
Mature field weeds; 2.5M, Day 10
  average toxicity score: 2.8
Mature field weeds; 2.5 molarity
  phytotoxicity (in words): less phytotoxicity than lower molarities
[1]
  toxicity level (in words): severe-to-fatal
[2]; 1.5 molar, last observed on Day 16
  appearance of treated plants: appeared dead with no regrowth
[2]; Day 3
  phytotoxic control (in words): strong phytotoxic control
[2]; Day 4 through Day 15
  phytotoxic control (in words): excellent phytotoxic control
[3]
  average toxicity score: 4.4
[4]; 1.0M, Days 3-7
  phytotoxic results (in words): strong phytotoxic results
[4]; 2.0M, Day 5
  average toxicity score: 4.3
[4]; 2.0M, Day 7
  average toxicity score: 4.4
[4]; […], Day 5
  average toxicity score: 4.1
[4]; […], Day 7
  average toxicity score: 4.1
[5]; 1.0M, second value listed (days not given)
  average toxicity score: 4.4
[5]; 1.0M, third value listed (days not given)
  average toxicity score: 4.8
[5]; 2.5M, Day 5
  average toxicity score: 4.5
[5]; 2.5M, Day 9
  average toxicity score: 4.8
[5]; 2.5M, Day 14
  average toxicity score: 4.9
[5]; […] (so in the source), Day 5
  average toxicity score: 4.0
[5]; […] (so in the source), Day 9
  average toxicity score: 4.8
[5]; […] (so in the source), Day 14
  average toxicity score: 5.0
[6]
  phytotoxic control (in words): strong to excellent phytotoxic control
[7]; 1.0M, Day 7 (so in the source)
  average toxicity score: 4.3
[7]; 1.0M, Day 11
  average toxicity score: 4.0
[7]; 2.0M, Day 1
  average toxicity score: 4.0
[7]; 2.0M, Day 11
  average toxicity score: 4.7
[7]; […], Day 1
  average toxicity score: 4
[7]; […], Day 11
  average toxicity score: 4.8
[8]; pH 4.3
  phytotoxic effect (in words): severe-to-fatal
[8]; pH 5.0
  phytotoxic effect (in words): severe-to-fatal

— patent publication US12648565B2, “Post-emergence herbicide” (Belvedere Foliar LLC, priority 2017, dated 2026)
